Measurements as given in PMC3625590, “NBM-T-L-BMX-OS01, Semisynthesized from Osthole, Is a Novel Inhibitor of Histone Deacetylase and Enhances Learning and Memory in Rats” (Evidence-based Complementary and Alternative Medicine : eCAM, 2013).
Structures can show the parent of a compound that is named as a salt.

Experiments:
Sco-induced amnesia rats [1] = assay: Water-maze learning, Sco-induced memory impairment; assay type: in vivo, Sprague-Dawley rats; details: Sco 1.5 mg/kg/d; BMX or SAHA 5 mg/kg/d i.p.
Protocol: SAHA was supplied by NatureWise Biotech and Medicals Corporation (Taipei, Taiwan). […] (St. Louis, MO, USA). The BMX and SAHA stock (100 mg/mL) was dissolved in DMSO and diluted with saline to a final concentration of 0.5 mg/mL (in 0.5% DMSO/saline). […] SD rats were randomly divided into 3 groups. For the naïve animal experiments, the BMX-injected or SAHA-injected groups were injected with BMX (5 mg/kg/d) or SAHA (5 mg/kg/d) intraperitoneally 7 d prior to behavioral experiments and during the experimentation. The control group received the 0.5% DMSO/saline injection. The injection volume was 10 μL/g of body weight. The injections were performed once per day. For the amnesia experiment, the protocol was adopted from previous studies with modifications. […] The control group received the 0.5% DMSO/saline injection. The injection volume was 10 μL/g of body weight. […] The method was adopted from that of a previous study with modifications. A plastic circular pool 2.0 m in diameter and 0.6 m in height was filled with water (25 ± 2°C) to a depth of 20 cm. A circular platform (8 cm in diameter) was placed at a specific location from the edge of the pool and submerged 2-3 cm below the water surface. Water was made cloudy by adding toxic-free dye. Distinctive visual cues were set on the wall. For spatial learning, animals were subjected to 3 trials per day, with one trial early in the morning, one trial at noon, and another in the late afternoon. The training procedure lasted 4 days, and a total of 12 trials were given. This procedure was adopted because spaced training is a better paradigm to facilitate memory consolidation. For these trials, the rats were positioned at different starting points spaced equally around the perimeter of the pool in random order. They had 120 s to find the hidden platform. If a rat could not find the platform, it was guided to the platform and was allowed to remain there for 20 s. The time each animal took to reach the platform was recorded as the escape latency. A probe trial of 120 s was given on day 5 to test their memory retention. The rats were placed in the pool with the platform removed, and the time they spent in each quadrant (Quadrants 1, 2, 3, and 4) was recorded. Quadrant 4 is the target quadrant. For the trained and swimming control experiments, rats in the trained group were subjected to the regular water maze learning procedure. At the end of the experiment, the rats were subjected to visible platform learning. For visible platform learning, a flag was mounted on the platform, and the platform was raised 2.5 cm above the surface of the water. In addition, the dye had not been added, so that the animals could see the location of the platform from the water. […]

Sco-induced amnesia rats [2] = assay: Novel object recognition, Sco-induced memory impairment; assay type: in vivo, Sprague-Dawley rats; details: Sco 1.5 mg/kg/d; BMX or SAHA 5 mg/kg/d i.p.; 8 h
Protocol: SAHA was supplied by NatureWise Biotech and Medicals Corporation (Taipei, Taiwan). […] (St. Louis, MO, USA). The BMX and SAHA stock (100 mg/mL) was dissolved in DMSO and diluted with saline to a final concentration of 0.5 mg/mL (in 0.5% DMSO/saline). […] SD rats were randomly divided into 3 groups. For the naïve animal experiments, the BMX-injected or SAHA-injected groups were injected with BMX (5 mg/kg/d) or SAHA (5 mg/kg/d) intraperitoneally 7 d prior to behavioral experiments and during the experimentation. The control group received the 0.5% DMSO/saline injection. The injection volume was 10 μL/g of body weight. The injections were performed once per day. For the amnesia experiment, the protocol was adopted from previous studies with modifications. […] The control group received the 0.5% DMSO/saline injection. The injection volume was 10 μL/g of body weight. […] The method used was adopted from that of a previous study with modifications. During familiarization, rats were allowed to explore 2 identical objects in an open field box (90 × 70 × 60 cm) for 5 min. The criteria used for exploration were a distance less than 1.5 cm between the rat and the object or direct contact with the object. […] The time that each rat spent exploring the 2 objects during a 5 min period was recorded. […]

CN1[C@@H]2C[C@@H](OC(=O)[C@H](CO)c3ccccc3)C[C@H]1[C@@H]1O[C@@H]12 [Sco, Scopolamine hydrochloride]
escape latency in finding the hidden platform (Sco-induced amnesia rats [1]): showed longer escape latency
probe trial, time spent in target quadrant (Sco-induced amnesia rats [1]): spent less time in the quadrant where the platform had been placed
exploratory preference for the novel object (NO) (Sco-induced amnesia rats [2]): showed no exploratory preference for the NO
